Experimental data from patent US20230055237A1, “COMPOUNDS AND METHODS FOR THE TREATMENT OF CYSTIC FIBROSIS” (Flatley Discovery Lab, LLC, priority 2019, published 2023).

Target: T1, CFTR (Homo sapiens, UniProt P13569, DEL508-508)
T1 construct: Primary CF airway epithelial cells were obtained from the UNC Cystic Fibrosis Tissue Procurement and Cell Culture Core; host or cells: primary CF airway epithelial cells, differentiated at the air-liquid interface
Assay: Equivalent current assay in primary CF airway epithelial cells (NAUC, combination with 1st site corrector FDL169 or VX-809)
Assay type: cell-based
Conditions: 37° C., 24 h

[1] = test compound 10 μM in combination with 1st site corrector VX-809 (3 μM)
[2] = test compound 1 μM in combination with 1st site corrector VX-809 (3 μM)
[3] = test compound 3 μM in combination with 1st site corrector VX-809 (3 μM)
[4] = test compound 1 μM in combination with 1st site corrector FDL169 (3 μM)
[5] = test compound 3 μM in combination with 1st site corrector FDL169 (3 μM)
[6] = test compound 10 μM in combination with 1st site corrector FDL169 (3 μM)

T1 sequence (P13569 with tags, fused parts or gaps DEL508-508): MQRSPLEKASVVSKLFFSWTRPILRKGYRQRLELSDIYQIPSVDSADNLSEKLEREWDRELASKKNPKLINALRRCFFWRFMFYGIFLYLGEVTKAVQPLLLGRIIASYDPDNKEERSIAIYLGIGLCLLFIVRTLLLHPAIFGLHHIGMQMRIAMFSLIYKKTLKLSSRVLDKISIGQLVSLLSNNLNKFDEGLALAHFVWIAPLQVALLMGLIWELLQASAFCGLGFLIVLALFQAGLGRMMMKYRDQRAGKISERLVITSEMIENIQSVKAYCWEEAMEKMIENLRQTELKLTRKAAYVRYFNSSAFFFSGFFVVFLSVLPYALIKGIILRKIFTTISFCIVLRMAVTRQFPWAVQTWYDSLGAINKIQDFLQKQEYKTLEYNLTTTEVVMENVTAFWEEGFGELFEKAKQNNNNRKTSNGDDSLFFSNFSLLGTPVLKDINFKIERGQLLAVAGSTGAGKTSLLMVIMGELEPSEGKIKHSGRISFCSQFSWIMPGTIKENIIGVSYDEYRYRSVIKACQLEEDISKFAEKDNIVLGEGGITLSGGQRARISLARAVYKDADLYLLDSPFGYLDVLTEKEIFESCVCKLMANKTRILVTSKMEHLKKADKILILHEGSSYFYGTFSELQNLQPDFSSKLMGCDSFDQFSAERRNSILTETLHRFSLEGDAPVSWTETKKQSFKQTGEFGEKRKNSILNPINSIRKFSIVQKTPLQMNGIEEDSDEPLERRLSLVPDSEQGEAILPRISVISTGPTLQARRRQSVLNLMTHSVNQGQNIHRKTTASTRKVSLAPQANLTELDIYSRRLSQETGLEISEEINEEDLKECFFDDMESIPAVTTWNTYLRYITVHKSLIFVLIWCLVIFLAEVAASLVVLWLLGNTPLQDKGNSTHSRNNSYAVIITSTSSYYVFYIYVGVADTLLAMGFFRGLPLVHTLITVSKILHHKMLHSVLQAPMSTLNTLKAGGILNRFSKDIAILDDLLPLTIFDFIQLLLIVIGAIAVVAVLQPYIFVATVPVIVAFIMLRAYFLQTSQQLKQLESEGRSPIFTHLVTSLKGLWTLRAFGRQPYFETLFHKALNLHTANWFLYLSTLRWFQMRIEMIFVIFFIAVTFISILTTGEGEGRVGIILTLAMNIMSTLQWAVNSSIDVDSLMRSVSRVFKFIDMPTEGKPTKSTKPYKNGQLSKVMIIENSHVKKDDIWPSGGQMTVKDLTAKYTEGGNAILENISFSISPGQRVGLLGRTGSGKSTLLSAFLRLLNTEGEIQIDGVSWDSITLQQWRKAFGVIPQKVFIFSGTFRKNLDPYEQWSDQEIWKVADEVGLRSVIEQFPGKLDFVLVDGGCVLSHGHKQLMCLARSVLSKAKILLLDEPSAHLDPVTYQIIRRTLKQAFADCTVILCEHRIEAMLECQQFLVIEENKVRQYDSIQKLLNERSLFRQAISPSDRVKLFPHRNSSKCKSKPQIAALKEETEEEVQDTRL

Row | SMILES | Nauc @ 10 μM [1] | Nauc @ 1 μM [2] | Nauc @ 3 μM [3] | Nauc @ 1 μM [4] | Nauc @ 3 μM [5] | Nauc @ 10 μM [6]
1 | O=C(Nc1ccccc1O)C1C2CC(F)(F)CN2C2(C(=O)Nc3c(Cl)cc(Cl)cc32)C1C(=O)O (centres unmarked) [Example 78.a] | + (NAUC “+” refers to an observed NAUC <140% of positive control) |  |  |  |  | 
2 | O=C(Nc1cc(Cl)cc(Cl)c1)C1CN(CC(F)(F)F)C2(C(=O)Nc3c(Cl)cc(Cl)cc32)C1C(=O)O (centres unmarked) [Example 79a] | + (NAUC “+” refers to an observed NAUC <140% of positive control) | + (NAUC “+” refers to an observed NAUC <140% of positive control) | + (NAUC “+” refers to an observed NAUC <140% of positive control) |  |  | 
3 | O=C(Nc1cc(Cl)cc(Cl)c1)C1CN(CC(F)(F)F)C2(C(=O)Nc3c(Cl)cc(Cl)cc32)C1C(=O)O (centres unmarked) [Example 79b] | ++ (NAUC “++” refers to an observed NAUC 170-140% of positive control) | + (NAUC “+” refers to an observed NAUC <140% of positive control) | + (NAUC “+” refers to an observed NAUC <140% of positive control) |  |  | 
4 | O=C(Nc1cc(Cl)cc(Cl)c1)C1CN(CC(F)(F)F)C2(C(=O)Nc3c(Cl)cc(Cl)cc32)C1C(=O)O (centres unmarked) [Example 79c] | + (NAUC “+” refers to an observed NAUC <140% of positive control) | + (NAUC “+” refers to an observed NAUC <140% of positive control) | + (NAUC “+” refers to an observed NAUC <140% of positive control) |  |  | 
5 | CC(C)(C)CN(C(=O)[C@H]1[C@H]2C[C@](C)(OCc3ccccc3)CN2[C@]2(C(=O)Nc3c(Cl)cc(Cl)cc32)[C@H]1C(=O)O)c1cc(Cl)cc(Cl)c1 [Example 90, (1′R,2′S,3R,6′S,7a′R)-6′-(benzyloxy)-5,7-dichloro-1-((3,5-dichlorophenyl)(neopentyl)carbamoyl)-6′-methyl-2-oxo-1′,2′,5′,6′,7′,7a′-hexahydrospiro[indoline-3,3′-pyrrolizine]-2′-carboxylic acid] |  |  |  | + (NAUC “+” refers to an observed NAUC <140% of positive control) | + (NAUC “+” refers to an observed NAUC <140% of positive control) | 
6 | CC(C)(C)CN(C(=O)[C@H]1[C@H]2C[C@](C)(O)CN2[C@]2(C(=O)Nc3c(Cl)cc(Cl)cc32)[C@H]1C(=O)O)c1cc(Cl)cc(Cl)c1 [Example 91, (1′R,2′S,3R,6′S,7a′R)-5,7-dichloro-1′-((3,5-dichlorophenyl)(neopentyl)carbamoyl)-6′-hydroxy-6′-methyl-2-oxo-1′,2′,5′,6′,7′,7a′-hexahydrospiro[indoline-3,3′-pyrrolizine]-2′-carboxylic acid] |  |  |  | ++ (NAUC “++” refers to an observed NAUC 170-140% of positive control) | ++ (NAUC “++” refers to an observed NAUC 170-140% of positive control) | 
7 | CN(C(=O)[C@H]1[C@H]2C[C@](C)(OCc3ccccc3)CN2[C@]2(C(=O)Nc3c(Cl)cc(Cl)cc32)[C@H]1C(=O)O)c1cc(Cl)cc(Cl)c1 [Example 92] | +++ (NAUC “+++” refers to an observed NAUC>170% of positive control) | ++ (NAUC “++” refers to an observed NAUC 170-140% of positive control) | +++ (NAUC “+++” refers to an observed NAUC>170% of positive control) | + (NAUC “+” refers to an observed NAUC <140% of positive control) | ++ (NAUC “++” refers to an observed NAUC 170-140% of positive control) | +++ (NAUC “+++” refers to an observed NAUC>170% of positive control)
8 | C[C@]1(OCc2ccccc2)C[C@@H]2[C@H](C(=O)N(CC3CC3)c3cc(Cl)cc(Cl)c3)[C@H](C(=O)O)[C@@]3(C(=O)Nc4c(Cl)cc(Cl)cc43)N2C1 [Example 93] |  |  |  | +++ (NAUC “+++” refers to an observed NAUC>170% of positive control) | +++ (NAUC “+++” refers to an observed NAUC>170% of positive control) | ++ (NAUC “++” refers to an observed NAUC 170-140% of positive control)
9 | C[C@]1(OCc2ccccc2)C[C@@H]2[C@H](C(=O)N(CC3CCCC3)c3cc(Cl)cc(Cl)c3)[C@H](C(=O)O)[C@@]3(C(=O)Nc4c(Cl)cc(Cl)cc43)N2C1 [Example 94] |  |  |  | ++ (NAUC “++” refers to an observed NAUC 170-140% of positive control) | ++ (NAUC “++” refers to an observed NAUC 170-140% of positive control) | 
10 | CC(C)(C)C(C)(C)CN(C(=O)[C@H]1[C@H]2C[C@](C)(OCc3ccccc3)CN2[C@]2(C(=O)Nc3c(Cl)cc(Cl)cc32)[C@H]1C(=O)O)c1cc(Cl)cc(Cl)c1 [Example 95] |  |  |  | +++ (NAUC “+++” refers to an observed NAUC>170% of positive control) | +++ (NAUC “+++” refers to an observed NAUC>170% of positive control) | +++ (NAUC “+++” refers to an observed NAUC>170% of positive control)
11 | CC(C)(C)C(C)(C)CN(C(=O)[C@H]1[C@H]2C[C@](C)(O)CN2[C@]2(C(=O)Nc3c(Cl)cc(Cl)cc32)[C@H]1C(=O)O)c1cc(Cl)cc(Cl)c1 [Example 96] |  |  |  | +++ (NAUC “+++” refers to an observed NAUC>170% of positive control) | +++ (NAUC “+++” refers to an observed NAUC>170% of positive control) | + (NAUC “+” refers to an observed NAUC <140% of positive control)
12 | CN(C(=O)[C@H]1[C@H]2CC(F)(F)CN2C2(C(=O)Nc3cc(Cl)ccc32)[C@H]1C(=O)O)c1cc(Cl)cc(Cl)c1 (some centres unmarked) [Example 101] |  |  |  | + (NAUC “+” refers to an observed NAUC <140% of positive control) | + (NAUC “+” refers to an observed NAUC <140% of positive control) | 
13 | CN(C(=O)[C@H]1[C@H]2CC(F)(F)CN2C2(C(=O)Nc3ccccc32)[C@H]1C(=O)O)c1cc(Cl)cc(Cl)c1 (some centres unmarked) [Example 102] | + (NAUC “+” refers to an observed NAUC <140% of positive control) |  |  |  |  | 
14 | COc1ccc2c(c1)C1(C(=O)N2)[C@@H](C(=O)O)[C@@H](C(=O)N(C)c2cc(Cl)cc(Cl)c2)[C@H]2CC(F)(F)CN21 (some centres unmarked) [Example 103] |  |  |  | + (NAUC “+” refers to an observed NAUC <140% of positive control) | + (NAUC “+” refers to an observed NAUC <140% of positive control) | + (NAUC “+” refers to an observed NAUC <140% of positive control)
15 | CN(C(=O)[C@H]1[C@H]2CC(F)(F)CN2C2(C(=O)Nc3c(Cl)cccc32)[C@H]1C(=O)O)c1cc(Cl)cc(Cl)c1 (some centres unmarked) [Example 104] |  |  |  |  |  | + (NAUC “+” refers to an observed NAUC <140% of positive control)
16 | CC(C)(C)CN(C(=O)[C@H]1[C@H]2CC(F)(F)CN2[C@]2(C(=O)Nc3c(Cl)cc(Cl)cc32)[C@H]1C(=O)O)c1cc(Cl)cc(Cl)c1 [Example 110, (1′R,2′S,3R,7a′R)-5,7-dichloro-1-((3,5-dichlorophenyl)(neopentyl)carbamoyl)-6′,6′-difluoro-2-oxo-1′,2′,5′,6′,7′,7a′-hexahydrospiro[indoline-3,3′-pyrrolizine]-2′-carboxylic acid] |  |  |  | +++ (NAUC “+++” refers to an observed NAUC>170% of positive control) | +++ (NAUC “+++” refers to an observed NAUC>170% of positive control) | + (NAUC “+” refers to an observed NAUC <140% of positive control)
